The record followed here is patent US9505786B2, “Substituted annulated triazines and use thereof” (BAYER INTELLECTUAL PROPERTY GMBH, priority 2012, dated 2016).

One assay deals with aorta rings. The assay is described as follows: Vasorelaxant effect in vitro (phenylephrine-contracted aorta rings). To be noted: Oryctolagus cuniculus, rabbit aorta rings, organ bath, phenylephrine contraction; read-out: IC50 (concentration needed to reduce the phenylephrine contraction by 50%). How it is done: B-1. Vasorelaxant Effect In Vitro
Rabbits are stunned by a blow to the neck and exsanguinated. The aorta is removed, freed from adhering tissue and divided into rings of a width of 1.5 mm. The rings are placed individually under an initial tension in 5 ml organ baths with Krebs-Henseleit solution which is at 37° C., is gassed with carbogen and has the following composition (in each case mM): sodium chloride: 119; potassium chloride: 4.8; calcium chloride dihydrate: 1; magnesium sulphate heptahydrate: 1.4; potassium dihydrogenphosphate: 1.2; sodium bicarbonate: 25; glucose: 10. The contractile force is determined with Statham UC2 cells, amplified and digitalized using A/D transducers (DAS-1802 HC, Keithley Instruments Munich), and recorded in parallel on linear recorders.
To produce a contraction, phenylephrine is added to the bath cumulatively in increasing concentration. After several control cycles, the substance to be investigated is added in each further run in increasing dosage in each case, and the height of the contraction achieved is compared with the height of the contraction reached in the last preceding run. This is used to calculate the concentration needed to reduce the magnitude of the control value by 50% (IC50 value). The standard administration volume is 5 μl; the DMSO content in the bath solution corresponds to 0.1%.

In assay [1] the target is human phosphodiesterase 5 (PDE 5) (Homo sapiens (Human), UniProt O76074). In words: Inhibition of human phosphodiesterase 5 (PDE 5), SPA assay. It counts as biochemical. As to conditions: PDE 5 preparation from human platelets, [8-3H] cGMP substrate. How it is done:
B-6. Inhibition of Human Phosphodiesterase 5 (PDE 5)
PDE 5 preparations are obtained from human platelets by disruption (Microfluidizer®, 800 bar, 3 passes), followed by centrifugation (75 000 g, 60 min, 4° C.) and ion exchange chromatography of the supernatant on a Mono Q 10/10 column (linear sodium chloride gradient, elution with a 0.2-0.3M solution of sodium chloride in buffer (20 mM Hepes pH 7.2, 2 mM magnesium chloride). Fractions having PDE 5 activity are combined (PDE 5 preparation) and stored at −80° C.
To determine their in vitro action on human PDE 5, the test substances are dissolved in 100% DMSO and serially diluted. Typically, dilution series (1:3) from 200 μM to 0.091 μM are prepared (resulting final concentrations in the test: 4 μM to 0.0018 μM). In each case 2 μl of the diluted substance solutions are placed into the wells of microtitre plates (Isoplate-96/200W; Perkin Elmer). Subsequently, 50 μl of a dilution of the above-described PDE 5 preparation are added. The dilution of the PDE 5 preparation is chosen such that during the later incubation less than 70% of the substrate are converted (typical dilution: 1:100; dilution buffer: 50 mM Tris/hydrochloric acid pH 7.5, 8.3 mM magnesium chloride, 1.7 mM EDTA, 0.2% BSA). The substrate, [8-^3H] cyclic guanosine-3′,5′-monophosphate (1 μCi/μl; Perkin Elmer) is diluted 1:2000 with assay buffer (50 mM tris/hydrochloric acid pH 7.5, 8.3 mM magnesium chloride, 1.7 mM EDTA) to a concentration of 0.0005 μCi/μl. By addition of 50 μl (0.025 μCi) of the diluted substrate, the enzyme reaction is finally started. The test mixtures are incubated at room temperature for 60 min and the reaction is stopped by adding 25 μl of a suspension of 18 mg/ml yttrium scintillation proximity beads in water (phosphodiesterase beads for SPA assays, RPNQ 0150, Perkin Elmer). The microtitre plates are sealed with a film and left to stand at room temperature for 60 min. Subsequently, the plates are analysed for 30 s per well in a Microbeta scintillation counter (Perkin Elmer). IC50 values are determined using the graphic plot of the substance concentration against percentage PDE 5 inhibition.

The test system of assay [2] is recombinant guanylate cyclase reporter cell line. In words: Effect on a recombinant guanylate cyclase reporter cell line. It counts as cell-based. How it is done: B-2. Effect on a Recombinant Guanylate Cyclase Reporter Cell Line
The cellular activity of the compounds according to the invention is determined using a recombinant guanylate cyclase reporter cell line, as described in F. Wunder et al., Anal. Biochem. 339, 104-112 (2005).

In the case of `CC1(C)C(=O)Nc2nc(-c3nn(Cc4ccccc4F)c4ncc(F)cc34)nc(CCC(F)(F)F)c21` [Example 58, 2-[5-Fluoro-1-(2-fluorobenzyl)-1H-pyrazolo[3,4-b]pyridin-3-yl]-5,5-dimethyl-4-(3,3,3-trifluoropropyl)-5,7-dihydro-6H-pyrrolo[2,3-d]pyrimidin-6-one], the IC50 came out at 9800 nM in the assay with aorta rings and 660 nM in assay [1]. In assay [2], the “MEC (minimum effective concentration)” value is on record as 300 nM.
Consider `CC1(C)C(=O)Nc2nc(-c3nn(Cc4ccccc4F)c4ncc(F)cc34)nc(CNCC(F)(F)F)c21` [Example 57, 2-[5-Fluoro-1-(2-fluorobenzyl)-1H-pyrazolo[3,4-b]pyridin-3-yl]-5,5-dimethyl-4-{[(2,2,2-trifluoroethyl)amino]methyl}-5,7-dihydro-6H-pyrrolo[2,3-d]pyrimidin-6-one], for which the IC50 with aorta rings stood at 422 nM; in assay [1] it was 320 nM. Moreover, the “MEC (minimum effective concentration)” value in assay [2] is given as 30 nM.
Take `O=C1Nc2nc(-c3nn(Cc4ccccc4F)c4ncccc34)ncc2C1(O)C(F)(F)C(F)(F)F` (stereo not drawn) [Example 3, 2-[1-(2-Fluorobenzyl)-1H-pyrazolo[3,4-b]pyridin-3-yl]-5-hydroxy-5-(pentafluoroethyl)-5,7-dihydro-6H-pyrrolo[2,3-d]pyrimidin-6-one]: the IC50 in the assay on aorta rings turned out to be 266 nM; in assay [1] it was 2400 nM. The “MEC (minimum effective concentration)” value in assay [2] was 30 nM.
For `CCOC(=O)C1(C)C(=O)Nc2nc(-c3nn(Cc4ccccc4F)c4ncccc34)nc(I)c21` (racemic) [Example 43, (rac) Ethyl 2-[1-(2-fluorobenzyl)-1H-pyrazolo[3,4-b]pyridin-3-yl]-4-iodo-5-methyl-6-oxo-6,7-dihydro-5H-pyrrolo[2,3-d]pyrimidine-5-carboxylate], the IC50 was 968 nM with aorta rings and 1750 nM in assay [1]. The “MEC (minimum effective concentration)” value in assay [2] stood at 100 nM.
With `Cc1nc(C(C)C)sc1-c1nc(-c2nn(Cc3ccccc3F)c3ncccc23)nc2c1C(C)(C)C(=O)N2` [Example 37, 2-[1-(2-Fluorobenzyl)-1H-pyrazolo[3,4-b]pyridin-3-yl]-4-(2-isopropyl-4-methyl-1,3-thiazol-5-yl)-5,5-dimethyl-5,7-dihydro-6H-pyrrolo[2,3-d]pyrimidin-6-one], the IC50 is 1430 nM in the assay with aorta rings and 500 nM in assay [1]. Also, the “MEC (minimum effective concentration)” value in assay [2] turned out to be 1000 nM.
In the case of `C=CCC1(C)C(=O)Nc2nc(-c3nn(Cc4ccccc4F)c4ncccc34)nnc21` (racemic) [Example 28, (rac) 7-Allyl-3-[1-(2-fluorobenzyl)-1H-pyrazolo[3,4-b]pyridin-3-yl]-7-methyl-5,7-dihydro-6H-pyrrolo[2,3-e][1,2,4]triazin-6-one], the IC50 with aorta rings was 209 nM; in assay [1] it was 310 nM. Also, in assay [2], the “MEC (minimum effective concentration)” value is given as 30 nM.
On to `Cc1cc(-c2nc(-c3nn(Cc4ccccc4F)c4ncccc34)nc3c2C(C)(C)C(=O)N3)n(C)n1` [Example 38, 4-(1,3-Dimethyl-1H-pyrazol-5-yl)-2-[1-(2-fluorobenzyl)-1H-pyrazolo[3,4-b]pyridin-3-yl]-5,5-dimethyl-5,7-dihydro-6H-pyrrolo[2,3-d]pyrimidin-6-one], for which the IC50 was 91 nM with aorta rings and 690 nM in assay [1]. In assay [2], the “MEC (minimum effective concentration)” value is given as 30 nM.
For `CC1(C)C(=O)Nc2nc(-c3nn(Cc4ccccc4F)c4ncccc34)nc(-c3ccn[nH]3)c21` [Example 15, 2-[1-(2-Fluorobenzyl)-1H-pyrazolo[3,4-b]pyridin-3-yl]-5,5-dimethyl-4-(1H-pyrazol-5-yl)-5,7-dihydro-6H-pyrrolo[2,3-d]pyrimidin-6-one], the results for the IC50 (in the assay on aorta rings; in assay [1]) were 738 nM and 40 nM, respectively. Also, in assay [2], the “MEC (minimum effective concentration)” value amounted to 10 nM.
`Cc1ccc(Cn2nc(-c3nnc4c(n3)NC(=O)C4(C)C)c3cc(F)cnc32)c(F)c1` [Example 10, 3-[5-Fluoro-1-(2-fluoro-4-methylbenzyl)-1H-pyrazolo[3,4-b]pyridin-3-yl]-7,7-dimethyl-5,7-dihydro-6H-pyrrolo[2,3-e][1,2,4]triazin-6-one]: the results for the IC50 (in the assay with aorta rings; in assay [1]) were 276 nM and 15 nM, respectively. Moreover, the “MEC (minimum effective concentration)” value in assay [2] is reported as 300 nM.
As to `CCC1(C)C(=O)Nc2nc(-c3nn(Cc4ccccc4F)c4ncc(F)cc34)nnc21` (racemic) [Example 7, 7-Ethyl-3-[5-fluoro-1-(2-fluorobenzyl)-1H-pyrazolo[3,4-b]pyridin-3-yl]-7-methyl-5,7-dihydro-6H-pyrrolo[2,3-e][1,2,4]triazin-6-one (racemate)], the IC50 with aorta rings worked out at 41 nM; in assay [1], 340 nM. Moreover, in assay [2], the “MEC (minimum effective concentration)” value is given as 30 nM.
`Cc1nc(C)c(-c2nc(-c3nn(Cc4ccccc4F)c4ncccc34)nc3c2C(C)(C)C(=O)N3)s1` [Example 36, 4-(2,4-Dimethyl-1,3-thiazol-5-yl)-2-[1-(2-fluorobenzyl)-1H-pyrazolo[3,4-b]pyridin-3-yl]-5,5-dimethyl-5,7-dihydro-6H-pyrrolo[2,3-d]pyrimidin-6-one]: the IC50 in the assay with aorta rings came to 218 nM; in assay [1], 1100 nM. Besides, the “MEC (minimum effective concentration)” value in assay [2] worked out at 100 nM.
For `Cn1nc(C(F)(F)F)cc1-c1nc(-c2nn(Cc3ccccc3F)c3ncccc23)nc2c1C(C)(C)C(=O)N2` [Example 41, 2-[1-(2-Fluorobenzyl)-1H-pyrazolo[3,4-b]pyridin-3-yl]-5,5-dimethyl-4-[1-methyl-3-(trifluoromethyl)-1H-pyrazol-5-yl]-5,7-dihydro-6H-pyrrolo[2,3-d]pyrimidin-6-one], in that order: 4210 nM, 1600 nM and 300 nM.
Take `CC1(C)C(=O)Nc2nc(-c3nn(Cc4ccccc4F)c4ncccc34)nc(CCCC(F)(F)F)c21` [Example 30, 2-[1-(2-Fluorobenzyl)-1H-pyrazolo[3,4-b]pyridin-3-yl]-5,5-dimethyl-4-(4,4,4-trifluorobutyl)-5,7-dihydro-6H-pyrrolo[2,3-d]pyrimidin-6-one]: the IC50 with aorta rings was 415 nM; in assay [1], 130 nM. In addition, in assay [2], the “MEC (minimum effective concentration)” value is recorded as 100 nM.
Take `CC1(C)C(=O)Nc2nc(-c3nn(Cc4ccccc4F)c4ncc(F)cc34)nc(CN)c21.O=CO` [Example 44, 4-(Aminomethyl)-2-[5-fluoro-1-(2-fluorobenzyl)-1H-pyrazolo[3,4-b]pyridin-3-yl]-5,5-dimethyl-5,7-dihydro-6H-pyrrolo[2,3-d]pyrimidin-6-one formate]: the results for the IC50 (in the assay with aorta rings; in assay [1]) were 501 nM and 870 nM, respectively. Further, the “MEC (minimum effective concentration)” value in assay [2] came to 30 nM.
On to `CC1(C)C(=O)Nc2nc(-c3nn(Cc4ccccc4F)c4ncccc34)nc(CCC3CC3)c21` [Example 17, 4-(2-Cyclopropylethyl)-2-[1-(2-fluorobenzyl)-1H-pyrazolo[3,4-b]pyridin-3-yl]-5,5-dimethyl-5,7-dihydro-6H-pyrrolo[2,3-d]pyrimidin-6-one], for which the IC50 in the assay on aorta rings was 2380 nM; in assay [1], 260 nM. Further, the “MEC (minimum effective concentration)” value in assay [2] stood at 100 nM.
For `CC1(C)C(=O)Nc2nc(-c3nn(Cc4ccccc4F)c4ncccc34)nc(C#CC3CC3)c21` [Example 16, 4-(Cyclopropylethynyl)-2-[1-(2-fluorobenzyl)-1H-pyrazolo[3,4-b]pyridin-3-yl]-5,5-dimethyl-5,7-dihydro-6H-pyrrolo[2,3-d]pyrimidin-6-one], in that order: 617 nM, 410 nM and 30 nM.
